In patent US9783537B2, “3-(4-ethylnylphenyl) pyridopyrimidinone compounds and process for preparation thereof useful as potential anticancer agents” (Council of Scientific & Industrial Research, priority 2013, dated 2017):
Read-outs that look alike come from different tables or passages of the source.

Legend:
SNB-19 = experiment: SRB 48 h growth assay, CNS SNB-19; format: cell-based, human; conditions: Homo sapiens, SNB-19, CNS
[1] = in vitro anticancer activity, melanoma panel; format: cell-based; conditions: Homo sapiens; nine melanoma cell lines, exposure at least 48 h; read-out: GI50, range over panel
K-562 = experiment: SRB 48 h growth assay, Leukemia K-562; format: cell-based, human
RPMI-8226 = experiment: SRB 48 h growth assay, Leukemia RPMI-8226; format: cell-based, human; conditions: RPMI-8226, Leukemia; for GI50: Homo sapiens
RXF393 = experiment: SRB 48 h growth assay, Renal RXF393; format: cell-based, human
MCF7 = experiment: SRB 48 h growth assay, Breast MCF7; format: cell-based, human; conditions: Homo sapiens
OVCAR-4 = experiment: SRB 48 h growth assay, Ovarian OVCAR-4; format: cell-based, human; conditions: OVCAR-4, Ovarian
[2] = test system: seven colon cancer cell line (COLO 205, HCC-2998, HCT-116, HCT-15, HT29, KM12 and SW-620); experiment: in vitro anticancer activity, colon panel; format: cell-based; conditions: Homo sapiens; seven colon cancer cell lines, exposure at least 48 h; read-out: GI50, range over panel
MDA-MB-231/ATCC = experiment: SRB 48 h growth assay, Breast MDA-MB-231/ATCC; format: cell-based, human
786-0 = experiment: SRB 48 h growth assay, Renal 786-0; format: cell-based, human; conditions: 786-0, Renal; for GI50: Homo sapiens
MDA-MB-468 = experiment: SRB 48 h growth assay, Breast MDA-MB-468; format: cell-based, human; conditions: MDA-MB-468, Breast
[3] = test system: seven ovarian cancer cell lines (IGROV1, OVCAR-3, OVCAR-4, OVCAR-5, OVCAR-8, NCI/ADR-RES and SK-OV-3); experiment: in vitro anticancer activity, ovarian panel; format: cell-based; conditions: Homo sapiens, exposure at least 48 h, read-out: GI50, range over panel
NCI-H522 = experiment: SRB 48 h growth assay, Non-small Cell Lung NCI-H522; format: cell-based, human
HL-60(TB) = experiment: SRB 48 h growth assay, Leukemia HL-60(TB); format: cell-based, human
OVCAR-8 = experiment: SRB 48 h growth assay, Ovarian OVCAR-8; format: cell-based, human; conditions: Homo sapiens, OVCAR-8, Ovarian
M14 = experiment: SRB 48 h growth assay, Melanoma M14; format: cell-based, human; conditions: for GI50: Homo sapiens
HS578T = experiment: SRB 48 h growth assay, Breast HS578T; format: cell-based, human; conditions: Homo sapiens, Hs-578T
HOP-62 = experiment: SRB 48 h growth assay, Non-small Cell Lung HOP-62; format: cell-based, human; conditions: HOP-62, Non-small Cell Lung; for GI50: Homo sapiens
SK-MEL-5 = experiment: SRB 48 h growth assay, Melanoma SK-MEL-5; format: cell-based, human; conditions: SK-MEL-5, Melanoma
SW-620 = experiment: SRB 48 h growth assay, Colon SW-620; format: cell-based, human; conditions: SW-620, Colon
SK-OV-3 = experiment: SRB 48 h growth assay, Ovarian SK-OV-3; format: cell-based, human; conditions: SK-OV-3, Ovarian
LOX IMVI = experiment: SRB 48 h growth assay, Melanoma LOX IMVI; format: cell-based, human; conditions: for GI50: Homo sapiens
KM12 = experiment: SRB 48 h growth assay, Colon KM12; format: cell-based, human
BT-549 = experiment: SRB 48 h growth assay, Breast BT-549; format: cell-based, human; conditions: BT-549, Breast
[4] = in vitro anticancer activity, non-small cell lung panel; format: cell-based; conditions: Homo sapiens; nine non-small cell lung cancer cell lines, exposure at least 48 h; read-out: GI50, range over panel
TK-10 = experiment: SRB 48 h growth assay, Renal TK-10; format: cell-based, human; conditions: TK-10, Renal; for GI50: Homo sapiens
[5] = read-out: Growth Inhibition GI50
[6] = read-out: Log10 GI50 (converted)
[7] = read-out: Log10 LC50 (converted)
[8] = Homo sapiens, read-out: Growth Inhibition GI50
[9] = Homo sapiens, read-out: Log10 GI50 (converted)
[10] = Homo sapiens, read-out: Log10 LC50 (converted)

## C#Cc1ccc(-n2c(/C=C/c3ccc4ccccc4n3)nc3ncccc3c2=O)cc1 [4t, (E)-3-(4-Ethynylphenyl)-2-(2-(quinolin-2-yl)vinyl)pyrido[2,3-d]pyrimidin-4(3H)-one]
SNB-19; [5]
  GI50: 720 nM
SNB-19; [6]
  GI50: 724 nM
SNB-19; [7]
  CC50: > 100000 nM
[1]
  GI50: 1600 to 6300 nM
K-562; Homo sapiens, K562, K-562, Leukemia, read-out: Growth Inhibition GI50
  GI50: 330 nM
K-562; Homo sapiens, K562, K-562, Leukemia, read-out: Log10 GI50 (converted)
  GI50: 331 nM
K-562; Homo sapiens, K562, K-562, Leukemia, read-out: Log10 LC50 (converted)
  CC50: > 100000 nM
K-562; K-562, Leukemia
  Log10 TGI50: >−4.00
RPMI-8226; [5]
  GI50: 260 nM
RPMI-8226; [6]
  GI50: 269 nM
RPMI-8226
  Log10 TGI50: −5.99
RXF393
  Log10 TGI50: −6.07
RXF393; Homo sapiens, RXF 393, read-out: Growth Inhibition GI50
  GI50: 250 nM
RXF393; Homo sapiens, RXF 393, read-out: Log10 GI50 (converted)
  GI50: 257 nM
RXF393; Homo sapiens, RXF 393, read-out: Log10 LC50 (converted)
  CC50: 5010 nM
MCF7; [5]
  GI50: 280 nM
MCF7; [6]
  GI50: 288 nM
MCF7; [7]
  CC50: > 100000 nM
OVCAR-4; [8]
  GI50: 330 nM
OVCAR-4; [9]
  GI50: 339 nM
OVCAR-4; [10]
  CC50: > 100000 nM
OVCAR-4
  Log10 TGI50: −5.46
[2]
  GI50: 3550 to 52800 nM
MDA-MB-231/ATCC
  Log10 TGI50: −5.93
MDA-MB-231/ATCC; [8]
  GI50: 330 nM
MDA-MB-231/ATCC; [9]
  GI50: 331 nM
MDA-MB-231/ATCC; [10]
  CC50: > 100000 nM
786-0
  Log10 TGI50: −5.88
786-0; [5]
  GI50: 380 nM
786-0; [6]
  GI50: 389 nM
MDA-MB-468; [8]
  GI50: 230 nM
MDA-MB-468; [9]
  GI50: 234 nM
MDA-MB-468; [10]
  CC50: 3470 nM
MDA-MB-468
  Log10 TGI50: −6.05
[3]
  GI50: 2410 to 32300 nM
NCI-H522
  Log10 TGI50: −6.10
NCI-H522; [8]
  GI50: 270 nM
NCI-H522; [9]
  GI50: 269 nM
NCI-H522; [10]
  CC50: 4900 nM
HL-60(TB)
  Log10 TGI50: −6.07
HL-60(TB); [8]
  GI50: 290 nM
HL-60(TB); [9]
  GI50: 295 nM
HL-60(TB); [10]
  CC50: > 100000 nM
OVCAR-8; [5]
  GI50: 340 nM
OVCAR-8; [6]
  GI50: 347 nM
OVCAR-8; [7]
  CC50: > 100000 nM
M14
  Log10 TGI50: −6.18
M14; [5]
  GI50: 260 nM
M14; [6]
  GI50: 263 nM
HS578T; [5]
  GI50: 240 nM
HS578T; [6]
  GI50: 240 nM
HS578T; [7]
  CC50: > 100000 nM
HOP-62
  Log10 TGI50: −5.72
HOP-62; [5]
  GI50: 460 nM
HOP-62; [6]
  GI50: 468 nM
SK-MEL-5; [8]
  GI50: 170 nM
SK-MEL-5; [9]
  GI50: 178 nM
SK-MEL-5; [10]
  CC50: 759 nM
SK-MEL-5
  Log10 TGI50: −6.43
SW-620; [8]
  GI50: 350 nM
SW-620; [9]
  GI50: 355 nM
SW-620; [10]
  CC50: 3890 nM
SW-620
  Log10 TGI50: −5.90
SK-OV-3; [8]
  GI50: 320 nM
SK-OV-3; [9]
  GI50: 324 nM
SK-OV-3; [10]
  CC50: > 100000 nM
SK-OV-3
  Log10 TGI50: −6.03
LOX IMVI
  Log10 TGI50: −5.99
LOX IMVI; [5]
  GI50: 320 nM
LOX IMVI; [6]
  GI50: 324 nM
KM12
  Log10 TGI50: −5.97
KM12; [8]
  GI50: 320 nM
KM12; [9]
  GI50: 324 nM
KM12; [10]
  CC50: 3470 nM
BT-549
  Log10 TGI50: −5.87
BT-549; [8]
  GI50: 350 nM
BT-549; [9]
  GI50: 355 nM
BT-549; [10]
  CC50: 5500 nM
[4]
  GI50: 1800 to 5660 nM
TK-10; [5]
  GI50: 430 nM
TK-10; [6]
  GI50: 437 nM
TK-10
  Log10 TGI50: −5.82
